Data set [1] has as its system A2780cis (resistant derivative of A2780). Description: SRB cytotoxicity assay, A2780cis. The class given is cell-based, human. To be noted: for resistance index (RI): quotient IC50 values A2780cis/A2780; for IC50: SRB assay, 72 h treatment, mean n = 3, SD 5-10%. From the text:
(§1) All compounds were screened for their cytotoxic activity and tumor cell selectivity using our standard model, previously described, comprising a selection of human tumor cell lines representing different solid tumor entities and non-malignant human fibroblasts (CCD18Co) including the cell line pair A2780/A2780cis, a well-known model of acquired drug resistance.
(§2) Reagents were bought from commercial suppliers and used without further purification. The solvents were dried according to the usual procedures. TLC was performed on silica gel (Macherey-Nagel, detection with UV absorption; Macherey-Nagel, Düren, Germany). […] Numbering in the NMR spectra: 1–20 (diterpene core), 21–24 for O-(CH2)n-N fragment followed by the pyridinium ring, the ethenyl moiety and the indole moiety. […] IR spectra were recorded on a Perkin-Elmer Spectrum Two (UATR Two Unit, Perkin-Elmer GmbH, Rodgau, Germany). […] Both media were supplemented with 10% fetal bovine serum (Biowest, Nuaillé, France) and 1% penicillin-streptomycin (Sigma-Aldrich).
(§3) Cytotoxic activities of compounds were analyzed using the SRB cytotoxicity assay. Cells were seeded in 96-well plates and after 24 h were treated with serial dilutions of compounds for 72 h. All subsequent steps were performed according to the previously described SRB assay protocol. Dose–response curves and calculation of IC50 values, including standard deviations, were carried out using GraphPad Prism8.

The subject of data set [2] is A2780 (ovarian carcinoma). Kind of data set: SRB cytotoxicity assay, A2780. In kind it is cell-based, human. To be noted: for selectivity index 1 (SI 1): CCD18Co/A2780; for IC50: SRB assay, 72 h treatment, mean n = 3, SD 5-10%.
From the text: as §1, §2, §3

In the next data set the test system is A549 (lung carcinoma). Kind of data set: SRB cytotoxicity assay, A549. The class given is cell-based, human. To be noted: for selectivity index 2 (SI 2): CCD18Co/A549; for IC50: SRB assay, 72 h treatment, mean n = 3, SD 5-10%.
From the text: as §1, §2, §3

Data set [3] has as its system CCD18Co (non-malignant human fibroblasts). Description: SRB cytotoxicity assay, CCD18Co. To be noted: 72 h treatment, mean n = 3, SD 5-10%. The class given is cell-based.
From the text: as §1, §2, §3
(Sulforhodamine B stains cellular protein and so reports cell mass.)

The test system of data set [4] is HT29 (colorectal carcinoma). Kind of data set: SRB cytotoxicity assay, HT29. In kind it is cell-based, human. Particulars: 72 h treatment, mean n = 3, SD 5-10%.
From the text: as §1, §2, §3

Another data set relates to MCF7 (breast carcinoma). Kind of data set: SRB cytotoxicity assay, MCF7. Particulars: 72 h treatment, mean n = 3, SD 5-10%. In kind it is cell-based, human.
From the text: as §1, §2, §3

As for “4-Bromobutyl (4α) -13-Hydroxykaur-16-en-18-oate Bromide [Compound 22]”, in data set [1], the “resistance index (RI)” value is on record as 1.14. Moreover, in data set [2], the “selectivity index 1 (SI 1)” value worked out at 3.58. In addition, in the data set on A549 (lung carcinoma), the “selectivity index 2 (SI 2)” value worked out at 1.68.
By IC50 is commonly meant the concentration at which inhibition is half-maximal. A low value points to higher potency. As to `C=C1C[C@@]23CC[C@H]4[C@@](C)(CCC[C@@]4(C)C(=O)OCCBr)[C@@H]2CC[C@]1(O)C3` [Compound 6, 2-Bromoethyl (4α)-13-Hydroxykaur-16-en-18-oate], the IC50 in data set [3] was 42.2 µM; in data set [4] it was 30.6 µM; in data set [1], 28.1 µM; in the data set on MCF7 (breast carcinoma), 29.4 µM; in data set [2], 24.8 µM; with A549 (lung carcinoma), 83.4 µM. Further, the “resistance index (RI)” value in data set [1] is listed as 1.13. The “selectivity index 1 (SI 1)” value in data set [2] stood at 1.70. For the same compound, the “selectivity index 2 (SI 2)” value with A549 (lung carcinoma) amounted to 0.51.
On to `C[C@@]12CC[C@@H]3[C@@](CC[C@H]4[C@@]3(C)CCC[C@@]4(C)C(=O)OCCBr)(CC1=O)C2` [Compound 7, 2-Bromoethyl (4α, 8β, 13β) 13-Methyl-16-oxo-17-norkauran-18-oate], for which the IC50 in data set [3] was 62.3 µM; in data set [4], 16.1 µM; in data set [1], 28.7 µM; with MCF7 (breast carcinoma) it was 11.8 µM; in data set [2], 19.1 µM; with A549 (lung carcinoma), 32.1 µM. For the same compound, the “resistance index (RI)” value in data set [1] was determined as 1.50. Further, the “selectivity index 1 (SI 1)” value in data set [2] was 3.26. Moreover, the “selectivity index 2 (SI 2)” value in the data set on A549 (lung carcinoma) is 1.94.
In the case of `C=C1C[C@@]23CC[C@H]4[C@@](C)(CCC[C@@]4(C)C(=O)OCC[n+]4ccc(/C=C/c5c[nH]c6ccccc56)cc4)[C@@H]2CC[C@]1(O)C3.[Br-]` [Compound 8, 2-{4-[(E)-2-(1H-Indol-3-yl)ethenyl]-pyridinium-1-yl}-ethyl (4α)-13-Hydroxykaur-16-en-18-oate Bromide], the IC50 was 11.8 µM in data set [3]; 1.81 µM in data set [4]; 1.86 µM in data set [1]; 1.81 µM in the data set on MCF7 (breast carcinoma); 2.01 µM in data set [2]; 8.82 µM in the data set on A549 (lung carcinoma). For the same compound, the “resistance index (RI)” value in data set [1] is recorded as 0.92. The “selectivity index 1 (SI 1)” value in data set [2] was found to be 5.87. The “selectivity index 2 (SI 2)” value with A549 (lung carcinoma) was 1.34.
Regarding `CC12CCC3C(CCC4C(C)(C(=O)OCC[n+]5ccc(C=Cc6c[nH]c7ccccc67)cc5)CCCC34C)(CC1=O)C2.[Br-]` (stereo not drawn) [Compound 9, 2-{4-[(E)-2-(1H-Indol-3-yl)-ethenyl]pyridinium-1-yl}-ethyl (4α, 8β, 13β) 13-Methyl-16-oxo-17-norkauran-18-oate Bromide], the IC50 in data set [3] was 13 µM; in data set [4], 1.56 µM; in data set [1], 1.54 µM; in the data set with MCF7 (breast carcinoma), 1.08 µM; in data set [2] it was 0.93 µM; with A549 (lung carcinoma), 9.09 µM. In addition, the “resistance index (RI)” value in data set [1] turned out to be 1.66. For the same compound, the “selectivity index 1 (SI 1)” value in data set [2] worked out at 13.96. The “selectivity index 2 (SI 2)” value in the data set on A549 (lung carcinoma) is reported as 1.42.
With `C=C1C[C@@]23CC[C@H]4[C@@](C)(CCC[C@@]4(C)C(=O)OCC[n+]4cccc(/C=C/c5c[nH]c6ccccc56)c4)[C@@H]2CC[C@]1(O)C3` [Compound 10, 2-{3-[(E)-2-(1H-Indol-3-yl)ethenyl]-pyridinium-1-yl}-ethyl (4α)-13-Hydroxykaur-16-en-18-oate Bromide], the half-inhibitory concentration (IC50) came to 22.7 µM in data set [3]; 7.65 µM in data set [4]; 4.2 µM in data set [1]; 3.83 µM in the data set with MCF7 (breast carcinoma); 2.8 µM in data set [2].
For `C=C1C[C@@]23CC[C@H]4[C@@](C)(CCC[C@@]4(C)C(=O)OCC[n+]4ccccc4/C=C/c4c[nH]c5ccccc45)[C@@H]2CC[C@]1(O)C3.[Br-]` [Compound 12, 2-{2-[(E)-2-(1H-Indol-3-yl)ethenyl]-pyridinium-1-yl}-ethyl (4α)-13-Hydroxykaur-16-en-18-oate Bromide], the IC50 in data set [3] turned out to be 75.9 µM; in data set [4], 28.5 µM; in data set [1], 29.4 µM; in the data set with MCF7 (breast carcinoma), 20.2 µM; in data set [2], 25.7 µM; in the data set on A549 (lung carcinoma) it was 54.3 µM. For the same compound, in data set [1], the “resistance index (RI)” value is given as 1.14. Further, the “selectivity index 1 (SI 1)” value in data set [2] is on record as 2.95. The “selectivity index 2 (SI 2)” value in the data set with A549 (lung carcinoma) is on record as 1.40.
On to `CC12CCC3C(CCC4C(C)(C(=O)OCC[n+]5ccccc5C=Cc5c[nH]c6ccccc56)CCCC34C)(CC1=O)C2.[Br-]` (stereo not drawn) [Compound 13, 2-{2-[(E)-2-(1H-Indol-3-yl)ethenyl]-pyridinium-1-yl}-ethyl (4α, 8β, 13β) 13-Methyl-16-oxo-17-norkauran-18-oate Bromide], for which the IC50 is 20.6 µM in data set [3]; 6.35 µM in data set [4]; 4.07 µM in data set [1]; 3.83 µM in the data set with MCF7 (breast carcinoma); 1.92 µM in data set [2]; 10.8 µM with A549 (lung carcinoma). The “resistance index (RI)” value in data set [1] came out at 2.12. The “selectivity index 1 (SI 1)” value in data set [2] came to 10.75. For the same compound, the “selectivity index 2 (SI 2)” value with A549 (lung carcinoma) came out at 1.90.
Consider `C=C1C[C@@]23CC[C@H]4[C@@](C)(CCC[C@@]4(C)C(=O)OCCCBr)[C@@H]2CC[C@]1(O)C3` [Compound 14, 3-Bromopropyl (4α) -13-hydroxykaur-16-en-18-oate], for which the IC50 in data set [3] was 41.7 µM; in data set [4], 29.1 µM; in data set [1], 28.4 µM; with MCF7 (breast carcinoma), 28.1 µM; in data set [2], 27.7 µM; with A549 (lung carcinoma), 29 µM. In addition, in data set [1], the “resistance index (RI)” value turned out to be 1.03. The “selectivity index 1 (SI 1)” value in data set [2] was determined as 1.51. Moreover, in the data set with A549 (lung carcinoma), the “selectivity index 2 (SI 2)” value is 1.44.
On to `CC12CCC3C(CCC4C(C)(C(=O)OCCCBr)CCCC34C)(CC1=O)C2` (stereo not drawn) [Compound 15, 3-Bromopropyl (4α, 8β, 13β) 13-Methyl-16-oxo-17-norkauran-18-oate], for which the IC50 came out at 41.5 µM in data set [3]; 15.1 µM in data set [4]; 16.6 µM in data set [1]; 12.8 µM in the data set with MCF7 (breast carcinoma); 9 µM in data set [2]; 24.8 µM with A549 (lung carcinoma). Moreover, in data set [1], the “resistance index (RI)” value came out at 1.85. Also, in data set [2], the “selectivity index 1 (SI 1)” value is given as 4.61. In addition, the “selectivity index 2 (SI 2)” value in the data set on A549 (lung carcinoma) worked out at 1.67.
As for `C=C1C[C@@]23CC[C@H]4[C@@](C)(CCC[C@@]4(C)C(=O)OCCC[n+]4ccc(/C=C/c5c[nH]c6ccccc56)cc4)[C@@H]2CC[C@]1(O)C3.[Br-]` [Compound 16, 3-{4-[(E)-2-(1H-Indol-3-yl)ethenyl]-pyridinium-1-yl}-propyl (4α)-13-Hydroxykaur-16-en-18-oate Bromide], the IC50 in data set [3] was 8.33 µM; in data set [4] it was 0.98 µM; in data set [1] it was 0.45 µM; in the data set with MCF7 (breast carcinoma), 0.72 µM; in data set [2], 0.32 µM; in the data set with A549 (lung carcinoma), 3 µM. For the same compound, the “resistance index (RI)” value in data set [1] worked out at 1.41. In data set [2], the “selectivity index 1 (SI 1)” value amounted to 26.27. The “selectivity index 2 (SI 2)” value in the data set on A549 (lung carcinoma) is recorded as 2.77.
In the case of `C=C1C[C@@]23CC[C@H]4[C@@](C)(CCC[C@@]4(C)C(=O)OCCC[n+]4cccc(/C=C/c5c[nH]c6ccccc56)c4)[C@@H]2CC[C@]1(O)C3.[Br-]` [Compound 18], the IC50 in data set [3] is 26.9 µM; in data set [4], 6.66 µM; in data set [1], 2.71 µM; in the data set on MCF7 (breast carcinoma) it was 9.47 µM; in data set [2], 2.28 µM; in the data set with A549 (lung carcinoma), 9.47 µM. For the same compound, the “resistance index (RI)” value in data set [1] worked out at 1.19. In addition, the “selectivity index 1 (SI 1)” value in data set [2] was found to be 11.82. The “selectivity index 2 (SI 2)” value in the data set with A549 (lung carcinoma) is 2.84.
As for `CC12CCC3C(CCC4C(C)(C(=O)OCCC[n+]5cccc(C=Cc6c[nH]c7ccccc67)c5)CCCC34C)(CC1=O)C2.[Br-]` (stereo not drawn) [Compound 19, 3-{3[(E)-2-(1H-Indol-3-yl)-ethenyl]-pyridinium-1-yl}-propyl (4α, 8β, 13β) 13-Methyl-16-oxo-17-norkauran-18-oate Bromide], the IC50 in data set [3] stood at 15.5 µM; in data set [4], 5.05 µM; in data set [1] it was 1.93 µM; in the data set with MCF7 (breast carcinoma), 2.5 µM; in data set [2] it was 0.99 µM; in the data set with A549 (lung carcinoma), 11.2 µM. The “resistance index (RI)” value in data set [1] worked out at 1.94. In data set [2], the “selectivity index 1 (SI 1)” value was found to be 15.60. For the same compound, in the data set with A549 (lung carcinoma), the “selectivity index 2 (SI 2)” value amounted to 1.38.
Take `C=C1C[C@@]23CC[C@H]4[C@@](C)(CCC[C@@]4(C)C(=O)OCCC[n+]4ccccc4/C=C/c4c[nH]c5ccccc45)[C@@H]2CC[C@]1(O)C3.[Br-]` [Compound 20, 3-{2-[(E)-2-(1H-Indol-3-yl)-ethenyl]-pyridinium-1-yl}-propyl (4α)-13-Hydroxykaur-16-en-18-oate bromide]: the IC50 stood at 19.4 µM in data set [3]; 6.11 µM in data set [4]; 2.7 µM in data set [1]; 1.85 µM in the data set on MCF7 (breast carcinoma); 1.81 µM in data set [2]; 12.6 µM in the data set with A549 (lung carcinoma). Moreover, the “resistance index (RI)” value in data set [1] came out at 1.49. Also, the “selectivity index 1 (SI 1)” value in data set [2] amounted to 10.73. The “selectivity index 2 (SI 2)” value in the data set with A549 (lung carcinoma) was 1.55.

The record behind these values is PMC10821019, “F16 Hybrids Derived from Steviol or Isosteviol Are Accumulated in the Mitochondria of Tumor Cells and Overcome Drug Resistance” (Molecules, 2024).
